Measured values taken from article PMC10077475, “DG9-conjugated morpholino rescues phenotype in SMA mice by reaching the CNS via a subcutaneous administration” (JCI Insight, 2023).

Experiments:
[1] = test system: severe SMA mouse model (Taiwanese model); test: Survival of severe SMA mice after a single subcutaneous injection at PD0; format: in vivo; settings: until humane endpoint
Procedure: To examine whether DG9 peptide can increase the efficacy of PMO, we conjugated it to an 18-mer PMO with a sequence identical to nusinersen. The DG9-PMO, unconjugated PMO, and MOE were injected into SMA model mice [Cg-Tg(SMN2)2HungSmn1^tm1Hung/J; abbreviated as Smn^–/– SMN2^Tg/Tg; commonly called the Taiwanese model]. We also used an arginine-rich peptide (R6G) that is currently being explored in clinical trials for Duchenne muscular dystrophy (DMD) and used in preclinical studies for Hutchinson-Gilford progeria syndrome ([37], [38]). The benchmark control peptide R6G was conjugated to the same PMO sequence used in our study (R6G-PMO). […] We subcutaneously injected mice with the AOs or saline (nontreated, NT) administered at postnatal day 0 (PD0) at 2 doses: 40 mg/kg or 80 mg/kg. In our preliminary experiments, we also tested lower doses of 10 and 20 mg/kg (data not shown). […] The survival was recorded until a humane endpoint was reached. For the 40 mg/kg doses, the median survival was 12 days for unconjugated PMO, 15.5 days for MOE, and 17 days for R6G-PMO, which was increased to 58 days for DG9-PMO treatment (Figure 1A and Supplemental Figure 1A; supplemental material available online with this article; https://doi.org/10.1172/jci.insight.160516DS1). The median survival increased to 57 days for unconjugated PMO, 64 days for MOE, and 121 days for DG9-PMO at the higher dose of 80 mg/kg (Figure 1A). […] In spite of no statistical difference between DG9-PMO and MOE groups, the median survival of DG9-PMO still was higher than MOE, as only 1 mouse was alive until PD200 following a 40 mg/kg injection of MOE.
SMA-transgenic mice [JAX stock 005058 FVB.Cg-Tg(SMN2)2HungSmn1^tm1Hung/J] (Smn^–/–; SMN2^Tg/Tg), also known as Taiwanese mice, were purchased from Jackson Laboratory. Heterozygous mice for Smn1 (Smn1^+/–; SMN2^–/–) generated by us were crossed with mice homozygous for Smn1 Smn^–/–; SMN2^Tg/Tg generated by us to obtain the SMA mice (Smn^–/–; SMN2^Tg/–) or the heterozygous healthy control (Smn1^+/–; SMN2^Tg/–). The SMA mice display a severe overt phenotype similar to patients with SMA type I. The mice were genotyped using a PCR assay on genomic DNA isolated from tail biopsies using the Phire Tissue Direct PCR Kit (Thermo Fisher Scientific) as per the manufacturer’s instructions. The DNA was amplified using the primers described in Supplemental Table 1 using the condition Mouse Smn: 98°C/5 minutes → 98°C/5 s 58°C/10 s 72°C/10 s × 35 cycles → 72°C/1 minute.
Injections were carried out using a 30-gauge Hamilton syringe. SMA mice identified following genotyping were randomly assigned to a treatment group. The researcher injecting mice was blinded to the treatment. SMA neonates were subcutaneously injected with 40 or 80 mg/kg of AOs at PD0, while NT and heterozygous control mice were injected with saline (n = 10–49) per group. Tissues including the quadriceps muscle, liver, kidney, spleen, diaphragm, intercostal muscle, heart, brain, and spinal cord were collected and snap-frozen in dry ice– cooled isopentane, then subsequently stored at –80°C.

[2] = test system: neuromuscular junctions of SMA mice; test: NMJ staining, innervation of quadriceps and intercostal muscles; format: in vivo, mouse; settings: 40 mg/kg s.c. at PD0, quadriceps and intercostal muscles at PD30, 300–500 NMJs per group
Excerpt: We assessed the NMJ architecture of the quadriceps and the intercostal muscles at PD30 to understand the phenotypic rescue following injections at PD0 (Figure 5A). […] Although there was no statistical significance, we observed upregulation of both atrogenes in the unconjugated PMO–treated mice and upregulation of only Atrogin-1 in MOE-treated mice in the quadriceps muscle at approximately PD30. […] We also evaluated the expressions of muscle specific kinase (MuSK) and acetylcholine receptor alpha (AChRα), which play a crucial role in NMJ formation and maintenance ([46]–[50]). […] The findings corroborate our hypothesis that DG9-PMO treatment rescues the crosstalk between the muscle and the neurons by improving muscle pathology and the characteristics of NMJs.
NMJ staining was carried out as previously described ([71]). Briefly, the quadriceps and the intercostal muscle were fixed in 4 % paraformaldehyde (PFA) for 2 hours. The muscles were washed quickly with PBS and blocked with 5% goat serum and 2 % Triton-X in PBS for 1 hour at RT. This was followed by overnight incubation at 4°C with the primary mouse monoclonal antibodies anti-neurofilament clone 2H3 (1:100) and […] (1:500) (DSHB). […] The synaptic area was quantified using ImageJ. […]

severe SMA mouse model = test: Muscle pathology by H&E staining (myofiber size, centrally nucleated fibers); format: in vivo
Excerpt: Atrophic musculature is a classical characteristic feature of SMA with diminished skeletal muscle fiber size. To determine the treatment effects on muscle pathology, we assessed the physiology and architecture of the myofibers of 2 affected muscle groups, the quadriceps and intercostal muscles, as well as the sparingly affected diaphragm at PD7 and PD30 ([42], [43]). We quantified the cross-sectional area (CSA), the minimal Feret’s diameter, and centrally nucleated fibers, a hallmark of pathological muscle degeneration/regeneration cycle, for at least 500 myofibers per muscle for each treatment using hematoxylin and eosin (H&E) staining at PD7 and PD30 (Figure 4, A and B, and Supplemental Figures 5 and 6). […] The effect of DG9-PMO persisted at PD30 (Supplemental Figure 6).
Cryosections (7 μm) of the quadriceps muscle, diaphragm, and intercostal muscle were stained with Meyer’s H&E reagents (Electron Microscopy Reagents) ([70]). For the centrally nucleated fibers and myofiber size, 500–800 were randomly selected per muscle per treatment. The CSA and minimal Feret’s diameter were quantified using ImageJ (NIH). All H&E analyses were performed in a blinded fashion.

[3] = single subcutaneous injection at PD0, 40 mg/kg
[4] = single subcutaneous injection at PD0, 80 mg/kg

| Compound | median survival [1, 3] | median survival [1, 4] | full innervation of peripheral synapses (NMJs) [2] | centrally nucleated fibers (severe SMA mouse model; 40 mg/kg s.c. at PD0, PD7) | Feret's diameter and CSA of myofibers at PD7 compared with NT control (severe SMA mouse model; 40 mg/kg s.c. at PD0, quadriceps, diaphragm, intercostal muscle) | myofiber size at PD30 compared with DG9-PMO (severe SMA mouse model; 40 mg/kg s.c. at PD0, all 3 tissue types) |
| --- | --- | --- | --- | --- | --- | --- |
| CC(=O)N[C@@H](Cc1ccc(O)cc1)C(=O)N[C@@H](C)C(=O)N[C@H](CCCNC(=N)N)C(=O)N[C@H](C(=O)N[C@@H](CCCNC(=N)N)C(=O)N[C@@H](CCCNC(=N)N)C(=O)N[C@H](CCCNC(=N)N)C(=O)NCC(=O)N1CCC[C@H]1C(=O)N[C@@H](CCCNC(=N)N)C(=O)NCC(=O)N[C@@H](Cc1ccc(O)cc1)C(=O)N[C@@H](C)C(=O)N[C@H](CCCNC(=N)N)C(=O)N[C@H](C(=O)N[C@@H](CCCNC(=N)N)C(=O)N[C@@H](CCCNC(=N)N)C(=O)N[C@H](CCCNC(=N)N)C(=O)NCC(=O)N1CCC[C@H]1C(=O)N[C@@H](CCCNC(=N)N)C(=O)N[C@H](CCCNC(=N)N)C(=O)N1C[C@@H](COP(=O)(N(C)C)N2C[C@@H](COP(=O)(N(C)C)N3C[C@@H](COP(=O)(N(C)C)N4C[C@@H](COP(=O)(N(C)C)N5C[C@@H](COP(=O)(N(C)C)N6C[C@@H](COP(=O)(N(C)C)N7C[C@@H](COP(=O)(N(C)C)N8C[C@@H](COP(=O)(N(C)C)N9C[C@@H](COP(=O)(N(C)C)N%10C[C@@H](COP(=O)(N(C)C)N%11C[C@@H](COP(=O)(N(C)C)N%12C[C@@H](COP(=O)(N(C)C)N%13C[C@@H](COP(=O)(N(C)C)N%14C[C@@H](COP(=O)(N(C)C)N%15C[C@@H](COP(=O)(N(C)C)N%16C[C@@H](COP(=O)(N(C)C)N%17C[C@@H](COP(=O)(N(C)C)N%18C[C@@H](COP(=O)(N(C)C)N%19CCC(C(N)=O)CC%19)O[C@@H](n%19cc(C)c(=O)[nH]c%19=O)C%18)O[C@@H](n%18ccc(N)nc%18=O)C%17)O[C@@H](n%17cnc%18c(N)ncnc%18%17)C%16)O[C@@H](n%16ccc(N)nc%16=O)C%15)O[C@@H](n%15cc(C)c(=O)[nH]c%15=O)C%14)O[C@@H](n%14cc(C)c(=O)[nH]c%14=O)C%13)O[C@@H](n%13cc(C)c(=O)[nH]c%13=O)C%12)O[C@@H](n%12ccc(N)nc%12=O)C%11)O[C@@H](n%11cnc%12c(N)ncnc%12%11)C%10)O[C@@H](n%10cc(C)c(=O)[nH]c%10=O)C9)O[C@@H](n9cnc%10c(N)ncnc%109)C8)O[C@@H](n8cnc9c(N)ncnc98)C7)O[C@@H](n7cc(C)c(=O)[nH]c7=O)C6)O[C@@H](n6cnc7c(=O)[nH]c(N)nc76)C5)O[C@@H](n5ccc(N)nc5=O)C4)O[C@@H](n4cc(C)c(=O)[nH]c4=O)C3)O[C@@H](n3cnc4c(=O)[nH]c(N)nc43)C2)O[C@@H](n2cnc3c(=O)[nH]c(N)nc32)C1)C(C)C)C(C)C (stereo partly drawn) [DG9-PMO] | 58 days | 121 days | more than 60% | significant decrease in the percentage of centrally nucleated fibers | significantly larger in all 3 muscle groups |  |
| unconjugated PMO: PMO targeting ISS-N1 intron 7 (5′ TCACTTTCATAATGCTGG 3′), purchased from Gene Tools LLC (all phosphorodiamidate morpholino (PMO)) [reference compound] | 12 days | 57 days | 40%–50% |  |  | significantly smaller myofibers |
